Results: patent US20100105746A1, “METHOD FOR TREATING METABOLIC DISEASES” (priority 2008, published 2010)

What was measured:
[1] = Terminal fasting serum glucose and lipids in rats with diet-induced obesity (Example 6); assay type: in vivo, rat; conditions: DIO rats, vs vehicle control
Experimental: As part of the study described in Example 4, a terminal blood sample (0.5 ml whole blood in EDTA) was collected on day 24, after a 12-18 hour fast. Whole blood was processed to serum, and analyzed for glucose, total cholesterol, HDL cholesterol, free fatty acids and total triglycerides.

[2] = Diabetic-prone (db/db) mouse model with high-fat diet (Example 7); assay type: in vivo; conditions: db/db mice, high-fat diet, 15, 50 and 100 mg/kg once daily
Experimental: The fibrate PPARα agonist fenofibrate (50 mg/kg) and the PPARγ agonist rosiglitazone (10 mg/kg) were used as reference controls for the study.

[3] = Weight gain in rats over seven-day dosing (Example 3); assay type: in vivo, rat; conditions: 7 days
Experimental: In an initial experiment, two dose groups of six animals per group received either 5 or 50 mg/kg b.i.d., and a further group received vehicle only, as a control. A follow-up experiment was performed to explore dose-response and the selected doses were 15 and 50 mg/kg b.i.d., again plus control.
Body weights of individual rats were recorded before and after the seven-day dosing period.

human PPARα = molecular target: T1, human PPARα (Homo sapiens, UniProt Q07869); experiment: PPARRE-luciferase reporter in HepG2 cells transfected with human PPARα; assay type: cell-based; conditions: retinoic acid 200 nM, read-out: EC50 activation of human PPARα (hPPARα)
T1 construct: expressed in transfected cells; host or cells: HepG2
T1 sequence (Q07869 1-468): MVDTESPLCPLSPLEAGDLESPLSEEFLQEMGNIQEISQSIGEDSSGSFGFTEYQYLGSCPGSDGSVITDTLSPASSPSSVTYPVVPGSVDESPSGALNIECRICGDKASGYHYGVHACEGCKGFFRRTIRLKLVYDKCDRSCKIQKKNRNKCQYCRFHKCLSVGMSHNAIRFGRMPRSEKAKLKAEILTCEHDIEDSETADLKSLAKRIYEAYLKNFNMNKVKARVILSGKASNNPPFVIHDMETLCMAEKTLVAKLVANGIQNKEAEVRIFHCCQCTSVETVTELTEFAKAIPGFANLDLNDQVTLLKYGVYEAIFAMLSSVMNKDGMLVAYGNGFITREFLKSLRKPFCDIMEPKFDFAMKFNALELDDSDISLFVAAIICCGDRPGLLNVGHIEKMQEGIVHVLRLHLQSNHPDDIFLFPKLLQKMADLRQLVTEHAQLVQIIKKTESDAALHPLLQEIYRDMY
Experimental: For this study, a luciferase reporter plasmid containing 5 copies of a defined genetic regulatory PPARα response element (PPARRE) was utilized to detect romazarit-induced PPARRE activation in presence of a co-activator, retinoic acid. Specifically, HepG2 cells were transfected with expression vectors for either human or rat PPARα and the PPARRE-luciferase reporter plasmid. After 24 hours, the cells were trypsanized and subsequently seeded in 96-well clear-bottom plates at a density of 1.0×10^5 cells/ml.

[4] = Metabolic parameters / indicators of insulin sensitivity in normal rats (Example 9); assay type: in vivo, rat
Text: Male Sprague-Dawley rats were provided normal chow ad libitum, both before and during the study period. […] Six rats were assigned to each treatment group (8 to the vehicle control). The study terminated on the day following administration of the seventh dose (day 8), with terminal blood collected for plasma lipid and lipoprotein analyses including LC-MS-based determination of lipid profiles, total and free cholesterol analyses, and lipoprotein cholesterol determinations (VLDL, LDL and HDL).
Adiponectin is an insulin-sensitizing protein that is abundantly expressed in adipocytes and is secreted into the circulation (see review by Lara-Castro et al. (2007) cited above).

[5] = Oral glucose tolerance test (OGTT) in rats with diet-induced obesity (Example 5); assay type: in vivo, rat; conditions: for Glucose concentration maximum / Glucose concentration excursion (baseline to maximum): OGTT day 21, DIO rats; for Time to maximum (glucose concentration): OGTT day 21, dextrose 2 g/kg, DIO rats
Experimental: As part of the study described in Example 4, an oral glucose tolerance test (OGTT) was performed on day 21 of the dosing period, after a 2-4 hour fast. Dextrose (2 g/kg) was administered by oral gavage. Blood for glucose analysis was collected at 0, 15, 30, 60, 120 and 180 minutes after dextrose administration. At each time point, 0.25 ml whole blood was collected in EDTA, processed to plasma, and analyzed for blood glucose with a low-volume glucose kit.

**Q.** For `Cc1nc(-c2ccc(Cl)cc2)oc1COC(C)(C)C(=O)O` [romazarit, 2-[[2-(4-chlorophenyl)-4-methyl-5-oxazolyl]methoxy]-2-methylpropanoic acid], which “terminal (total) cholesterol levels” value ([1]; day 24, 15 mg/kg once daily) is on record?
**A.** Its value is “not statistically significant”.

**Q.** And the “terminal HDL levels” value ([1]; day 24, 15 mg/kg once daily)?
**A.** Its value is “not statistically significant”.

**Q.** What about the “terminal fasting levels of triglycerides” value ([1]; day 24, 15 mg/kg once daily) of the same compound?
**A.** The value was “significant reduction”.

**Q.** And the “terminal fasting serum glucose” value ([1]; day 24, 15 mg/kg once daily)?
**A.** The value was “significantly reduced”.

**Q.** And the “terminal levels of free fatty acids” value ([1]; day 24, 15 mg/kg once daily)?
**A.** The value was “did not, at any of the tested doses, affect”.

**Q.** What about the “terminal (total) cholesterol levels” value ([1]; day 24, 50 mg/kg once daily) of the same compound?
**A.** The value was “significantly reduced”.

**Q.** What about the “terminal HDL levels” value ([1]; day 24, 50 mg/kg once daily) of the same compound?
**A.** The value was “significantly reduced”.

**Q.** What about the “terminal fasting levels of triglycerides” value ([1]; day 24, 50 mg/kg once daily) of the same compound?
**A.** The value was “significant reduction”.

**Q.** And the “terminal fasting serum glucose” value ([1]; day 24, 50 mg/kg once daily)?
**A.** Its value is “significantly reduced”.

**Q.** What about the “terminal levels of free fatty acids” value ([1]; day 24, 50 mg/kg once daily) of the same compound?
**A.** Its value is “did not, at any of the tested doses, affect”.

**Q.** What about the “terminal (total) cholesterol levels” value ([1]; day 24, 100 mg/kg once daily) of the same compound?
**A.** The value was “significantly reduced”.

**Q.** And the “terminal HDL levels” value ([1]; day 24, 100 mg/kg once daily)?
**A.** The value was “significantly reduced”.

**Q.** What about the “terminal fasting levels of triglycerides” value ([1]; day 24, 100 mg/kg once daily) of the same compound?
**A.** The value was “did not achieve statistical significance”.

**Q.** And the “terminal fasting serum glucose” value ([1]; day 24, 100 mg/kg once daily)?
**A.** Its value is “significantly reduced”.

**Q.** And the “terminal levels of free fatty acids” value ([1]; day 24, 100 mg/kg once daily)?
**A.** Its value is “did not, at any of the tested doses, affect”.

**Q.** And the HDL [2]?
**A.** The HDL was “did not significantly affect”.

**Q.** And the total cholesterol [2]?
**A.** The total cholesterol was “did not significantly affect”.

**Q.** And the total plasma triglycerides [2]?
**A.** Its total plasma triglycerides is “tendency likewise to reduce total plasma triglycerides at higher doses”.

**Q.** What about the weight gain [2] of the same compound?
**A.** The weight gain was “None of the romazarit or fenofibrate treatments reduced weight gain”.

**Q.** What about the “whole blood glucose levels” value [2] of the same compound?
**A.** The value was “no such effect was seen”.

**Q.** And the weight gain ([3]; 15 mg/kg b.i.d. p.o., second experiment)?
**A.** The weight gain was “generally similar to that seen in the initial experiment with the 5 mg/kg dose”.

**Q.** And the weight gain ([3]; 50 mg/kg b.i.d. p.o., initial experiment)?
**A.** Its weight gain is “dramatic inhibition of weight gain”.

**Q.** What about the weight gain ([3]; 50 mg/kg b.i.d. p.o., second experiment) of the same compound?
**A.** The weight gain was “not only inhibited weight gain, but even resulted in weight loss”.

**Q.** What about the EC50 (human PPARα) of the same compound?
**A.** The EC50 was roughly 200 µM.

**Q.** And the glucose in plasma ([4]; once daily p.o. 7 days)?
**A.** Its glucose in plasma is “appeared to lower”.

**Q.** What about the insulin in plasma ([4]; once daily p.o. 7 days) of the same compound?
**A.** The insulin in plasma was “appeared to lower”.

**Q.** And the plasma glucagon ([4]; once daily p.o. 7 days)?
**A.** The plasma glucagon was “lowered”.

**Q.** What about the plasma adiponectin ([4]; once daily p.o. 7 days, 10, 50 and 100 mg/kg) of the same compound?
**A.** The plasma adiponectin was “dose-dependently increased”.

**Q.** What about the Glucose concentration maximum ([5]; 15 mg/kg) of the same compound?
**A.** The Glucose concentration maximum was 230.1 mg/dL.

**Q.** What about the “Glucose concentration excursion (baseline to maximum)” value ([5]; 50 mg/kg) of the same compound?
**A.** Its value is 61.1 mg/dL.

**Q.** And the Glucose concentration maximum ([5]; 50 mg/kg)?
**A.** Its Glucose concentration maximum is 203.3 mg/dL.

**Q.** What about the “Glucose concentration excursion (baseline to maximum)” value ([5]; 100 mg/kg) of the same compound?
**A.** Its value is 42.7 mg/dL.

**Q.** What about the Glucose concentration maximum ([5]; 100 mg/kg) of the same compound?
**A.** The Glucose concentration maximum was 185.1 mg/dL.

**Q.** What about the “Time to maximum (glucose concentration)” value ([5]; 15 mg/kg) of the same compound?
**A.** The value was 15 min.

**Q.** And the “Time to maximum (glucose concentration)” value ([5]; 50 mg/kg)?
**A.** The value was 15 min.

**Q.** And the “Time to maximum (glucose concentration)” value ([5]; 100 mg/kg)?
**A.** The value was 60 min.
